From PubChem BioAssay (NCI)
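Cultured in 96-well plates, cells were exposed to test compound for 48 hours across five concentrations. At the GI50, growth is halved. TGI is the concentration that stops growth completely.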

Key:
Experiment in all cases: NCI-60 cell line screen, 48 h; in the data active = GI50 below about 0.43 µM; inactive = the rest
[1] = system: UO-31 renal
[2] = system: MOLT-4 leukemia
[3] = system: OVCAR-8 ovarian
[4] = system: SF-295 CNS
[5] = system: TK-10 renal
[6] = system: SNB-19 CNS
[7] = system: NCI-H460 lung
[8] = system: HCT-15 colon
[9] = system: NCI-H522 lung
[10] = system: SW-620 colon
[11] = system: CAKI-1 renal
[12] = system: OVCAR-5 ovarian
[13] = system: HCT-116 colon
[14] = system: SK-MEL-5 melanoma
[15] = system: SR leukemia
[16] = system: UACC-62 melanoma
[17] = system: U251 CNS
[18] = system: UACC-257 melanoma
[19] = system: DMS 273 small cell lung
[20] = system: NCI-H226 lung
[21] = system: SF-539 CNS
[22] = system: LOX IMVI melanoma
[23] = system: HOP-18 NSCLC
[24] = system: CCRF-CEM leukemia
[25] = system: OVCAR-3 ovarian
[26] = system: HCC-2998 colon
[27] = system: M14 melanoma
[28] = system: EKVX NSCLC
[29] = system: HOP-92 NSCLC
[30] = system: 786-0 renal
[31] = system: LXFL 529 NSCLC
[32] = system: DMS 114 small cell lung
[33] = system: SK-MEL-28 melanoma
[34] = system: MALME-3M melanoma
[35] = system: NCI-H23 lung
[36] = system: KM20L2 colon
[37] = system: SN12C renal
[38] = system: A498 renal
[39] = system: DLD-1 colon
[40] = system: IGROV1 ovarian
[41] = system: HT29 colon
[42] = system: HL-60(TB) leukemia
[43] = system: K-562 leukemia
[44] = system: A549 NSCLC
[45] = system: COLO 205 colon
[46] = system: SNB-75 CNS
[47] = system: KM12 colon
[48] = system: OVCAR-4 ovarian
[49] = system: SK-OV-3 ovarian
[50] = system: ACHN renal
[51] = system: SK-MEL-2 melanoma
[52] = system: SF-268 CNS
[53] = system: SNB-78 CNS
[54] = system: M19-MEL melanoma
[55] = system: HOP-62 NSCLC
[56] = system: RPMI-8226 leukemia

COC(=O)C1Cc2c([nH]c3ccccc23)C(c2ccccc2O)N1 (stereo not drawn)
47.1 µM: TGI [7]
75.4 µM: TGI [42]
93.8 µM: TGI [45]
97.9 µM: TGI [1]
> 100 µM: TGI [2] | TGI [3] | TGI [4] | TGI [5] | TGI [6] | TGI [8] | TGI [9] | TGI [10] | TGI [11] | TGI [12] | TGI [13] | TGI [14] | TGI [15] | TGI [16] | TGI [17] | TGI [18] | TGI [19] | TGI [20] | TGI [21] | TGI [22] | TGI [23] | TGI [24] | TGI [25] | TGI [26] | TGI [27] | TGI [28] | TGI [29] | TGI [30] | TGI [31] | TGI [32] | TGI [33] | TGI [34] | TGI [35] | TGI [36] | TGI [37] | TGI [38] | TGI [39] | TGI [40] | TGI [41] | TGI [43] | TGI [44] | TGI [46] | TGI [47] | TGI [48] | TGI [49] | TGI [50] | TGI [51]

NCCN.O=C([O-])C(=O)[O-].O=C([O-])C(=O)[O-].[Co+3].[K+]
inactive: GI50 [1] > 100 µM | GI50 [2] > 100 µM | GI50 [3] > 100 µM | GI50 [4] > 100 µM | GI50 [5] > 100 µM | GI50 [6] > 100 µM | GI50 [7] > 100 µM | GI50 [8] > 100 µM | GI50 [9] 92.4 µM | GI50 [10] > 100 µM | GI50 [12] > 100 µM | GI50 [13] > 100 µM | GI50 [14] > 100 µM | GI50 [16] > 100 µM | GI50 [17] > 100 µM | GI50 [18] > 100 µM | GI50 [21] > 100 µM | GI50 [22] > 100 µM | GI50 [52] > 100 µM | GI50 [24] > 100 µM | GI50 [25] > 100 µM | GI50 [26] > 100 µM | GI50 [27] > 100 µM | GI50 [28] > 100 µM | GI50 [29] > 100 µM | GI50 [30] > 100 µM | GI50 [31] > 100 µM | GI50 [32] > 100 µM | GI50 [53] > 100 µM | GI50 [33] > 100 µM | GI50 [34] > 100 µM | GI50 [35] > 100 µM | GI50 [36] > 100 µM | GI50 [54] > 100 µM | GI50 [37] > 100 µM | GI50 [38] > 100 µM | GI50 [39] > 100 µM | GI50 [40] > 100 µM | GI50 [41] > 100 µM | GI50 [42] > 100 µM | GI50 [55] > 100 µM | GI50 [43] > 100 µM | GI50 [44] > 100 µM | GI50 [56] > 100 µM | GI50 [45] > 100 µM | GI50 [46] > 100 µM | GI50 [47] > 100 µM | GI50 [48] > 100 µM | GI50 [49] > 100 µM | GI50 [50] > 100 µM | GI50 [51] > 100 µM
> 100 µM: TGI [1] | TGI [2] | TGI [3] | TGI [4] | TGI [5] | TGI [6] | TGI [7] | TGI [8] | TGI [9] | TGI [10] | TGI [12] | TGI [13] | TGI [14] | TGI [16] | TGI [17] | TGI [18] | TGI [21] | TGI [22] | TGI [52] | TGI [24] | TGI [25] | TGI [26] | TGI [27] | TGI [28] | TGI [29] | TGI [30] | TGI [31] | TGI [32] | TGI [53] | TGI [33] | TGI [34] | TGI [35] | TGI [36] | TGI [54] | TGI [37] | TGI [38] | TGI [39] | TGI [40] | TGI [41] | TGI [42] | TGI [55] | TGI [43] | TGI [44] | TGI [56] | TGI [45] | TGI [46] | TGI [47] | TGI [48] | TGI [49] | TGI [50] | TGI [51]
